# How the values were obtained:
# [1] = test system: rape; experiment: Test B pre/postemergence rape; type: in vivo, Brassica napus
# In short: (§1)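 Response is a visual 0-to-10 score relative to untreated plants, where 0 means no effect and 10 means complete control, taken twelve to sixteen days after application. Treatments went onto soil at planting and onto foliage of 1- to 4-leaf plants, using a surfactant-containing non-phytotoxic solvent.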
# [2] = test system: giant foxtail; experiment: Test B pre/postemergence giant foxtail; type: in vivo, Setaria faberii
# In short: as §1
# [3] = test system: blackgrass; experiment: Test B pre/postemergence blackgrass; type: in vivo, Alopecurus myosuroides
# In short: as §1
# [4] = test system: crabgrass; experiment: Test B pre/postemergence crabgrass; type: in vivo, Digitaria sanguinalis
# In short: as §1
# [5] = test system: wild oat; experiment: Test B pre/postemergence wild oat; type: in vivo, Avena fatua
# In short: as §1
# [6] = test system: bedstraw; experiment: Test B pre/postemergence bedstraw; type: in vivo, Galium aparine; details: Preemergence
# In short: as §1
# [7] = test system: cocklebur; experiment: Test B pre/postemergence cocklebur; type: in vivo, Xanthium strumarium
# In short: as §1
# [8] = test system: morningglory; experiment: Test B pre/postemergence morningglory; type: in vivo, Ipomoea hederacea
# In short: as §1
# [9] = test system: corn; experiment: Test B pre/postemergence corn; type: in vivo, Zea mays
# In short: as §1
# [10] = test system: pigweed; experiment: Test B pre/postemergence pigweed; type: in vivo, Amaranthus retroflexus
# In short: as §1
# [11] = test system: velvetleaf; experiment: Test B pre/postemergence velvetleaf; type: in vivo, Abutilon theophrasti
# In short: as §1
# [12] = test system: soybean; experiment: Test B pre/postemergence soybean; type: in vivo, Glycine max
# In short: as §1
# [13] = test system: surinam grass; experiment: Test B pre/postemergence surinam grass; type: in vivo, Brachiaria decumbens
# In short: as §1
# [14] = test system: purple nutsedge; experiment: Test B pre/postemergence purple nutsedge; type: in vivo, Cyperus rotundus
# In short: as §1
# [15] = test system: sugar beet; experiment: Test B pre/postemergence sugar beet; type: in vivo, Beta vulgaris
# In short: as §1
# [16] = test system: wheat; experiment: Test B pre/postemergence wheat; type: in vivo, Triticum aestivum
# In short: as §1
# [17] = Postemergence, Rate 62 g/ha, scale 0 to 10, 0 is no effect, 10 is complete control
# [18] = Postemergence, Rate 125 g/ha, scale of 0 to 10 where 0 is no effect and 10 is complete control
# [19] = Preemergence, Rate 62 g/ha, scale of 0 to 10 where 0 is no effect and 10 is complete control
# [20] = Preemergence, Rate 125 g/ha, scale of 0 to 10 where 0 is no effect and 10 is complete control
# [21] = Preemergence, Rate 250 g/ha, scale 0 to 10 (0 no effect, 10 complete control)
# [22] = Preemergence, Rate 500 g/ha, scale of 0 to 10 where 0 is no effect and 10 is complete control
# [23] = Rate 500 g/ha, Postemergence, scale 0 to 10, 0 is no effect, 10 is complete control
# [24] = Postemergence, Rate 250 g/ha, scale of 0 to 10, 0 is no effect, 10 is complete control
compound,measurement,setting,value
CC(C)N(C(=O)n1oc(=O)n(Cc2nnc(Cl)s2)c1=O)c1ccc(Cl)cc1 [Compound 653],"Plant response rating, Rape",[1]; [17],0
same,Rape plant response rating,[1]; [18],0
same,Rape plant response rating,[1]; [19],0
same,Rape plant response rating,[1]; [20],0
same,"Plant response rating, Rape",[1]; [21],0
same,"Plant response rating, Rape",[1]; [22],0
same,Rape plant response rating,[1]; [23],0
same,"Plant response rating, Giant foxtail",[2]; [17],0
same,Giant foxtail plant response rating,[2]; [18],0
same,Giant foxtail plant response rating,[2]; [24],2
same,Giant foxtail plant response rating,[2]; [19],0
same,Giant foxtail plant response rating,[2]; [20],0
same,"Plant response rating, Giant foxtail",[2]; [21],2
same,"Plant response rating, Giant foxtail",[2]; [22],8
same,Giant foxtail plant response rating,[2]; [23],7
same,"Plant response rating, Blackgrass",[3]; [17],0
same,Blackgrass plant response rating,[3]; [18],0
same,Blackgrass plant response rating,[3]; [24],0
same,Blackgrass plant response rating,[3]; [19],0
same,Blackgrass plant response rating,[3]; [20],0
same,"Plant response rating, Blackgrass",[3]; [21],0
same,"Plant response rating, Blackgrass",[3]; [22],0
same,Blackgrass plant response rating,[3]; [23],0
same,"Plant response rating, Crabgrass",[4]; [17],0
same,Crabgrass plant response rating,[4]; [18],0
same,Crabgrass plant response rating,[4]; [24],0
same,Crabgrass plant response rating,[4]; [19],0
same,Crabgrass plant response rating,[4]; [20],2
same,"Plant response rating, Crabgrass",[4]; [21],6
same,"Plant response rating, Crabgrass",[4]; [22],8
same,Crabgrass plant response rating,[4]; [23],2
same,"Plant response rating, Wild oats",[5]; [17],0
same,Wild oats plant response rating,[5]; [18],0
same,Wild oats plant response rating,[5]; [19],0
same,Wild oats plant response rating,[5]; [20],0
same,"Plant response rating, Wild oats",[5]; [21],0
same,"Plant response rating, Wild oats",[5]; [22],2
same,Wild oats plant response rating,[5]; [23],0
same,Bedstraw plant response rating,"[6]; Rate 62 g/ha, scale of 0 to 10 where 0 is no effect and 10 is complete control",0
same,Bedstraw plant response rating,"[6]; Rate 125 g/ha, scale of 0 to 10 where 0 is no effect and 10 is complete control",0
same,"Plant response rating, Bedstraw","[6]; Rate 250 g/ha, scale 0 to 10 (0 no effect, 10 complete control)",0
same,"Plant response rating, Bedstraw","[6]; Rate 500 g/ha, scale of 0 to 10 where 0 is no effect and 10 is complete control",0
same,"Plant response rating, Cocklebur",[7]; [17],0
same,Cocklebur plant response rating,[7]; [18],0
same,Cocklebur plant response rating,[7]; [24],0
same,Cocklebur plant response rating,[7]; [19],0
same,"Plant response rating, Cocklebur",[7]; [21],0
same,"Plant response rating, Cocklebur",[7]; [22],0
same,Cocklebur plant response rating,[7]; [23],0
same,"Plant response rating, Morningglory",[8]; [17],0
same,Morningglory plant response rating,[8]; [18],1
same,Morningglory plant response rating,[8]; [24],1
same,Morningglory plant response rating,[8]; [19],0
same,Morningglory plant response rating,[8]; [20],0
same,"Plant response rating, Morningglory",[8]; [21],0
same,"Plant response rating, Morningglory",[8]; [22],0
same,Morningglory plant response rating,[8]; [23],1
same,"Plant response rating, Corn",[9]; [17],0
same,Corn plant response rating,[9]; [18],0
same,Corn plant response rating,[9]; [24],0
same,Corn plant response rating,[9]; [19],0
same,Corn plant response rating,[9]; [20],0
same,"Plant response rating, Corn",[9]; [21],0
same,"Plant response rating, Corn",[9]; [22],0
same,Corn plant response rating,[9]; [23],0
same,"Plant response rating, Redroot pigweed",[10]; [17],0
same,Redroot pigweed plant response rating,[10]; [18],0
same,Redroot pigweed plant response rating,[10]; [19],0
same,Redroot pigweed plant response rating,[10]; [20],0
same,"Plant response rating, Redroot pigweed",[10]; [21],0
same,"Plant response rating, Redroot pigweed",[10]; [22],3
same,Redroot pigweed plant response rating,[10]; [23],0
same,"Plant response rating, Velvetleaf",[11]; [17],0
same,Velvetleaf plant response rating,[11]; [18],0
same,Velvetleaf plant response rating,[11]; [19],0
same,Velvetleaf plant response rating,[11]; [20],0
same,"Plant response rating, Velvetleaf",[11]; [21],0
same,"Plant response rating, Velvetleaf",[11]; [22],0
same,Velvetleaf plant response rating,[11]; [23],0
same,"Plant response rating, Soybean",[12]; [17],0
same,Soybean plant response rating,[12]; [18],0
same,Soybean plant response rating,[12]; [19],0
same,Soybean plant response rating,[12]; [20],0
same,"Plant response rating, Soybean",[12]; [21],0
same,"Plant response rating, Soybean",[12]; [22],0
same,Soybean plant response rating,[12]; [23],0
same,"Plant response rating, B. signalgrass",[13]; [17],0
same,"Plant response rating, B. signalgrass",[13]; [18],0
same,B. signalgrass plant response rating,[13]; [24],0
same,B. signalgrass plant response rating,[13]; [19],0
same,B. signalgrass plant response rating,[13]; [20],0
same,"Plant response rating, B. signalgrass",[13]; [21],0
same,"Plant response rating, B. signalgrass",[13]; [22],0
same,B. signalgrass plant response rating,[13]; [23],2
same,"Plant response rating, Nutsedge",[14]; [17],0
same,Nutsedge plant response rating,[14]; [18],0
same,Nutsedge plant response rating,[14]; [19],0
same,"Plant response rating, Nutsedge",[14]; [22],0
same,Nutsedge plant response rating,[14]; [23],0
same,"Plant response rating, Sugarbeets",[15]; [17],0
same,Sugarbeets plant response rating,[15]; [18],0
same,Sugarbeets plant response rating,[15]; [19],0
same,Sugarbeets plant response rating,[15]; [20],0
same,"Plant response rating, Sugarbeets",[15]; [21],0
same,"Plant response rating, Sugarbeets",[15]; [22],0
same,Sugarbeets plant response rating,[15]; [23],0
same,"Plant response rating, Wheat",[16]; [17],0
same,Wheat plant response rating,[16]; [18],0
same,Wheat plant response rating,[16]; [19],0
same,Wheat plant response rating,[16]; [20],0
same,"Plant response rating, Wheat",[16]; [21],0
same,"Plant response rating, Wheat",[16]; [22],0
same,Wheat plant response rating,[16]; [23],0

# — US6737383B1, “Herbicidal oxadiazolidines” (priority 1999, dated 2004)
